The target in the first data set is ATP-dependent translocase ABCB1 (Homo sapiens, UniProt P08183). As to the kind of experiment: TP_TRANSPORTER: cell accumulation of calcein in L-MDR1 cells.
Chain of ATP-dependent translocase ABCB1 (P08183 whole entry): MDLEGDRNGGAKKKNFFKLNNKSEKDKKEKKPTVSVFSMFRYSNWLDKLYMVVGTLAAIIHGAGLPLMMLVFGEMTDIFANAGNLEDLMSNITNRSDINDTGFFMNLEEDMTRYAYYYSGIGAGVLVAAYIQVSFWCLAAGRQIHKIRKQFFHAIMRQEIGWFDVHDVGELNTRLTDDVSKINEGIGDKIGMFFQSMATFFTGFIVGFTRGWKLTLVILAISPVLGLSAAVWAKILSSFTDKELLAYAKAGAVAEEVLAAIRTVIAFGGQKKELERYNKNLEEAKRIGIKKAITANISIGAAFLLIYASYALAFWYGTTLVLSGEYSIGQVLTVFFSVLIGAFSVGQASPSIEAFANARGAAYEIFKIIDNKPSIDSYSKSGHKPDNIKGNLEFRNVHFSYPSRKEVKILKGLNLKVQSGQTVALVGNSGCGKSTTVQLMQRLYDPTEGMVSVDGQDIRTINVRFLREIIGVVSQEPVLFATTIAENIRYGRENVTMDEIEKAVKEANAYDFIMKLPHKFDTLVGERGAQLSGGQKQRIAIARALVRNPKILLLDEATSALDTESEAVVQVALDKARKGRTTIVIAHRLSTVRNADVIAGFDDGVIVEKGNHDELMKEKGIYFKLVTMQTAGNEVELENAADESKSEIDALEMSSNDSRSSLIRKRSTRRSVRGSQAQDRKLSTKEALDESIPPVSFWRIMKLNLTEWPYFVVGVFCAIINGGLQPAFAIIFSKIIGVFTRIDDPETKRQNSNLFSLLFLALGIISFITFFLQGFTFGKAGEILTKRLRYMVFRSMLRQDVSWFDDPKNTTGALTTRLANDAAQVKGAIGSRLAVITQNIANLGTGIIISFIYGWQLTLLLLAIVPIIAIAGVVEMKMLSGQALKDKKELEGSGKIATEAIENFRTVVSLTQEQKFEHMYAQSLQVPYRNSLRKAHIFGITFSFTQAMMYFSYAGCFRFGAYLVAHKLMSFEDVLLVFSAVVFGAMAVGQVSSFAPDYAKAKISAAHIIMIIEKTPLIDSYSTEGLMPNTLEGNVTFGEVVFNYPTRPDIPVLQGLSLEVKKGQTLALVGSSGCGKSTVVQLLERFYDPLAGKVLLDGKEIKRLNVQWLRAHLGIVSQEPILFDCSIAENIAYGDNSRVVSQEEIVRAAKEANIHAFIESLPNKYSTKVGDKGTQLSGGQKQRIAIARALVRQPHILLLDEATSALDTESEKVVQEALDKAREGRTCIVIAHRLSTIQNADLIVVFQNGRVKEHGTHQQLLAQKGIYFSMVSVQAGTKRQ
Details: not given
The data set is classed as functional, cell-based.
Turning to `CN[C@H]1CC[C@@H](c2ccc(Cl)c(Cl)c2)c2ccccc21` [SERTRALINE], the IC50 is 31.8 µM.
Turning to `Fc1ccc([C@@H]2CCNC[C@H]2COc2ccc3c(c2)OCO3)cc1` [PAROXETINE], the IC50 was 29.8 µM.

Staying with this data set, now noted: pig, l-mdr1.
For the compound `COCCCC/C(=N\OCCN)c1ccc(C(F)(F)F)cc1` [FLUVOXAMINE], the Activity result is “inhibitor [+]”.
Same read-out and setting: as for `COc1ccc(C(CN(C)C)C2(O)CCCCC2)cc1` (configuration not stated) [VENLAFAXINE], the entry is “inhibitor [+]”; as for `CN(C)CCCC1(c2ccc(F)cc2)OCc2cc(C#N)ccc21` (configuration not stated) [CITALOPRAM], “inhibitor [+]”; as for `CNCC(c1ccc(OC)cc1)C1(O)CCCCC1` (configuration not stated) [N-DESMETHYLVENLAFAXINE], “inhibitor [+]”.
On the same count and under the same terms, to `NCCC(Oc1ccc(C(F)(F)F)cc1)c1ccccc1` (configuration not stated) [NORFLUOXETINE] belongs “inhibitor [+]”; to `N[C@H]1CC[C@@H](c2ccc(Cl)c(Cl)c2)c2ccccc21`, “inhibitor [+]”.
Turning to `COc1cc(OC[C@@H]2CNCC[C@H]2c2ccc(F)cc2)ccc1O` [Paroxetine-M], the Activity result was “inhibitor [+]”.
Consider `CNCCCC1(c2ccc(F)cc2)OCc2cc(C#N)ccc21` (configuration not stated) [DESMETHYLCITALOPRAM], for which the Activity result is “inhibitor [+]”.
In the case of `C/C=C/C[C@@H](C)C(=O)[C@H]1C(=O)N[C@@H](C(C)C)C(=O)N(C)CC(=O)N(C)[C@@H](CC(C)C)C(=O)N[C@@H](C(C)C)C(=O)N(C)[C@@H](CC(C)C)C(=O)N[C@@H](C)C(=O)N[C@H](C)C(=O)N(C)[C@@H](CC(C)C)C(=O)N(C)[C@@H](CC(C)C)C(=O)N(C)[C@@H](C(C)C)C(=O)N1C`, the Activity entry was “inhibitor [+]”.
Consider `CN(C)CC(c1ccc(O)cc1)C1(O)CCCCC1` (configuration not stated) [DESVENLAFAXINE], for which the Activity entry was “is not an inhibitor [-]”.
